Patent US20130072430A1, “METHODS FOR TREATMENT OR PROPHYLAXIS OF KIDNEY OR LIVER DYSFUNCTION” (NPS PHARMACEUTICALS, INC., priority 2010, published 2013)

System: Human patients with short bowel syndrome
Assay: Example 2: liver biomarkers (albumin, gamma glutamyl transferase, total bilirubin, ALT, AST, ALP) in short bowel syndrome patients, every four weeks for 24 weeks
Assay type: in vivo
Settings: 0.05 mg/kg/d; for Gamma Glutamyl Transferase Observed Value, Mean / Gamma Glutamyl Transferase Observed Value, Median / ALKALINE PHOSPHATASE Change from Baseline, Median / ALT Change from Baseline, Mean / ALT Change from Baseline, Median / ALT Observed Value, Mean / ALT Observed Value, Median / AST Change from Baseline, Mean / AST Change from Baseline, Median / AST Observed Value, Mean / AST Observed Value, Median / Albumin Change from Baseline, Mean / Albumin Change from Baseline, Median / Albumin Observed Value, Mean / Albumin Observed Value, Median / Alkaline Phosphatase Change from Baseline, Mean / Alkaline Phosphatase Observed Value, Mean / Alkaline Phosphatase Observed Value, Median / Bilirubin Change from Baseline, Mean / Bilirubin Change from Baseline, Median / Bilirubin Observed Value, Mean / Bilirubin Observed Value, Median / Gamma Glutamyl Transferase Change from Baseline, Mean / Gamma Glutamyl Transferase Change from Baseline, Median: n=38; for ALT >10% decrease from Baseline, % of subjects / ALT >10% decrease from Baseline, n subjects / ALT >10% increase from Baseline, % of subjects / ALT >10% increase from Baseline, n subjects / ALT Within 10% of Baseline, % of subjects / ALT Within 10% of Baseline, n subjects / AST >10% decrease from Baseline, % of subjects / AST >10% decrease from Baseline, n subjects / AST >10% increase from Baseline, % of subjects / AST >10% increase from Baseline, n subjects / AST Within 10% of Baseline, % of subjects / AST Within 10% of Baseline, n subjects / Albumin >10% decrease from Baseline, % of subjects / Albumin >10% decrease from Baseline, n subjects / Albumin >10% increase from Baseline, n subjects / Albumin Within 10% of Baseline, % of subjects / Albumin Within 10% of Baseline, n subjects / Alkaline Phosphatase >10% decrease from Baseline, % of subjects / Alkaline Phosphatase >10% decrease from Baseline, n subjects / Alkaline Phosphatase >10% increase from Baseline, % of subjects / Alkaline Phosphatase >10% increase from Baseline, n subjects / Alkaline Phosphatase Within 10% of Baseline, % of subjects / Alkaline Phosphatase Within 10% of Baseline, n subjects / Bilirubin >10% decrease from Baseline, % of subjects / Bilirubin >10% decrease from Baseline, n subjects / Bilirubin >10% increase from Baseline, % of subjects / Bilirubin >10% increase from Baseline, n subjects / Bilirubin Within 10% of Baseline, % of subjects / Bilirubin Within 10% of Baseline, n subjects: m=38
Description: To further confirm the results of Example 1, a further study was conducted involving more individuals and additional diagnostic biomarkers. Human patients with short bowel syndrome were divided into two groups: a control group (43 total individuals) to receive placebo, and an experimental group (42 total individuals) to receive teduglutide at 0.05 mg/kg/day throughout the study. Patients were treated by subcutaneous injection of placebo or the appropriate dose of teduglutide. Known biomarkers of liver function were monitored every four weeks, for 24 weeks. The liver biomarkers tested included albumin, gamma glutamyl transferase, total bilirubin, ALT and AST and ALP. Before administration of placebo or teduglutide, diagnostic biomarker levels were tested to establish a baseline for each individual.
To determine the effect of GLP-2 on the levels of the diagnostic biomarkers, the average level of each biomarker was measured for the placebo and teduglutide treated groups for each visit. Furthermore, the average change from baseline was calculated using the established baseline values. For FIGS. 17-28, p-values were calculated using the t-test.
P values are provided, which were calculated for each distribution of biomarker changes for each week using the chi-squared test.

Structure (SMILES): CC[C@H](C)[C@H](NC(=O)[C@H](Cc1ccccc1)NC(=O)[C@H](CC(=O)O)NC(=O)[C@H](CCCNC(=N)N)NC(=O)[C@H](C)NC(=O)[C@H](C)NC(=O)[C@H](CC(C)C)NC(=O)[C@H](CC(N)=O)NC(=O)[C@H](CC(=O)O)NC(=O)[C@H](CC(C)C)NC(=O)[C@@H](NC(=O)[C@@H](NC(=O)[C@H](CC(N)=O)NC(=O)[C@H](CCSC)NC(=O)[C@H](CCC(=O)O)NC(=O)[C@H](CC(=O)O)NC(=O)[C@H](CO)NC(=O)[C@H](Cc1ccccc1)NC(=O)[C@H](CO)NC(=O)CNC(=O)[C@H](CC(=O)O)NC(=O)CNC(=O)[C@@H](N)Cc1c[nH]cn1)[C@@H](C)O)[C@@H](C)CC)C(=O)N[C@@H](CC(N)=O)C(=O)N[C@@H](Cc1c[nH]c2ccccc12)C(=O)N[C@@H](CC(C)C)C(=O)N[C@H](C(=O)N[C@@H](CCC(N)=O)C(=O)N[C@H](C(=O)N[C@@H](CCCCN)C(=O)N[C@H](C(=O)N[C@H](C(=O)N[C@@H](CC(=O)O)C(=O)O)[C@@H](C)O)[C@@H](C)CC)[C@@H](C)O)[C@@H](C)CC [teduglutide]
- Gamma Glutamyl Transferase Observed Value, Mean (Week 16): 72.4 U/L
- Gamma Glutamyl Transferase Observed Value, Median (Week 16): 54 U/L
- ALT >10% decrease from Baseline, % of subjects (Week 20): (60.5%)
- ALT >10% decrease from Baseline, n subjects (Week 20): 23
- ALT >10% increase from Baseline, % of subjects (Week 20): (13.2%)
- ALT >10% increase from Baseline, n subjects (Week 20): 5
- ALT Within 10% of Baseline, % of subjects (Week 20): (26.3%)
- ALT Within 10% of Baseline, n subjects (Week 20): 10
- AST >10% decrease from Baseline, % of subjects (Week 20): (52.6%)
- AST >10% decrease from Baseline, n subjects (Week 20): 20
- AST >10% increase from Baseline, % of subjects (Week 20): (18.4%)
- AST >10% increase from Baseline, n subjects (Week 20): 7
- AST Within 10% of Baseline, % of subjects (Week 20): (28.9%)
- AST Within 10% of Baseline, n subjects (Week 20): 11
- Albumin >10% decrease from Baseline, % of subjects (Week 20): (2.6%)
- Albumin >10% decrease from Baseline, n subjects (Week 20): 1
- Albumin >10% increase from Baseline, n subjects (Week 20): 0
- Albumin Within 10% of Baseline, % of subjects (Week 20): (97.4%)
- Albumin Within 10% of Baseline, n subjects (Week 20): 37
- Alkaline Phosphatase >10% decrease from Baseline, % of subjects (Week 20): (60.5%)
- Alkaline Phosphatase >10% decrease from Baseline, n subjects (Week 20): 23
- Alkaline Phosphatase >10% increase from Baseline, % of subjects (Week 20): (7.9%)
- Alkaline Phosphatase >10% increase from Baseline, n subjects (Week 20): 3
- Alkaline Phosphatase Within 10% of Baseline, % of subjects (Week 20): (31.6%)
- Alkaline Phosphatase Within 10% of Baseline, n subjects (Week 20): 12
- Bilirubin >10% decrease from Baseline, % of subjects (Week 20): (65.8%)
- Bilirubin >10% decrease from Baseline, n subjects (Week 20): 25
- Bilirubin >10% increase from Baseline, % of subjects (Week 20): (21.1%)
- Bilirubin >10% increase from Baseline, n subjects (Week 20): 8
- Bilirubin Within 10% of Baseline, % of subjects (Week 20): (13.2%)
- Bilirubin Within 10% of Baseline, n subjects (Week 20): 5
- ALKALINE PHOSPHATASE Change from Baseline, Median (Week 20): −25.5 U/L
- ALT Change from Baseline, Mean (Week 20): −10.3 U/L
- ALT Change from Baseline, Median (Week 20): −6.5 U/L
- ALT Observed Value, Mean (Week 20): 34.8 U/L
- ALT Observed Value, Median (Week 20): 28.5 U/L
- AST Change from Baseline, Mean (Week 20): −4.2 U/L
- AST Change from Baseline, Median (Week 20): −2.5 U/L
- AST Observed Value, Mean (Week 20): 28.4 U/L
- AST Observed Value, Median (Week 20): 24.5 U/L
- Albumin Change from Baseline, Mean (Week 20): -0.6 g/L
- Albumin Change from Baseline, Median (Week 20): -1 g/L
- Albumin Observed Value, Mean (Week 20): 41.8 g/L
- Albumin Observed Value, Median (Week 20): 43 g/L
- Alkaline Phosphatase Change from Baseline, Mean (Week 20): −28.6 U/L
- Alkaline Phosphatase Observed Value, Mean (Week 20): 109.8 U/L
- Alkaline Phosphatase Observed Value, Median (Week 20): 94.5 U/L
- Bilirubin Change from Baseline, Mean (Week 20): -2.76 µmol/L
- Bilirubin Change from Baseline, Median (Week 20): -1.7 µmol/L
- Bilirubin Observed Value, Mean (Week 20): 9.88 µmol/L
- Bilirubin Observed Value, Median (Week 20): 7.85 µmol/L
- Gamma Glutamyl Transferase Change from Baseline, Mean (Week 20): −9.6 U/L
- Gamma Glutamyl Transferase Change from Baseline, Median (Week 20): −8 U/L
- Gamma Glutamyl Transferase Observed Value, Mean (Week 20): 70.1 U/L
- Gamma Glutamyl Transferase Observed Value, Median (Week 20): 47.5 U/L
- ALT >10% decrease from Baseline, % of subjects (Week 24): (63.2%)
- ALT >10% decrease from Baseline, n subjects (Week 24): 24
- ALT >10% increase from Baseline, % of subjects (Week 24): (10.5%)
- ALT >10% increase from Baseline, n subjects (Week 24): 4
- ALT Within 10% of Baseline, % of subjects (Week 24): (26.3%)
- ALT Within 10% of Baseline, n subjects (Week 24): 10
- AST >10% decrease from Baseline, % of subjects (Week 24): (63.2%)
- AST >10% decrease from Baseline, n subjects (Week 24): 24
- AST >10% increase from Baseline, % of subjects (Week 24): (15.8%)
- AST >10% increase from Baseline, n subjects (Week 24): 6
- AST Within 10% of Baseline, % of subjects (Week 24): (21.1%)
- AST Within 10% of Baseline, n subjects (Week 24): 8
- Albumin >10% decrease from Baseline, % of subjects (Week 24): (5.3%)
- Albumin >10% decrease from Baseline, n subjects (Week 24): 2
- Albumin >10% increase from Baseline, n subjects (Week 24): 0
- Albumin Within 10% of Baseline, % of subjects (Week 24): (94.7%)
- Albumin Within 10% of Baseline, n subjects (Week 24): 36
- Alkaline Phosphatase >10% decrease from Baseline, % of subjects (Week 24): (60.5%)
- Alkaline Phosphatase >10% decrease from Baseline, n subjects (Week 24): 23
- Alkaline Phosphatase >10% increase from Baseline, % of subjects (Week 24): (15.8%)
- Alkaline Phosphatase >10% increase from Baseline, n subjects (Week 24): 6
- Alkaline Phosphatase Within 10% of Baseline, % of subjects (Week 24): (23.7%)
- Alkaline Phosphatase Within 10% of Baseline, n subjects (Week 24): 9
- Bilirubin >10% decrease from Baseline, % of subjects (Week 24): (68.4%)
- Bilirubin >10% decrease from Baseline, n subjects (Week 24): 26
- Bilirubin >10% increase from Baseline, % of subjects (Week 24): (15.8%)
- Bilirubin >10% increase from Baseline, n subjects (Week 24): 6
- Bilirubin Within 10% of Baseline, % of subjects (Week 24): (15.8%)
- Bilirubin Within 10% of Baseline, n subjects (Week 24): 6
- ALKALINE PHOSPHATASE Change from Baseline, Median (Week 24): −24.5 U/L
- ALT Change from Baseline, Mean (Week 24): −13.5 U/L
- ALT Change from Baseline, Median (Week 24): −7.5 U/L
- ALT Observed Value, Mean (Week 24): 28.5 U/L
- ALT Observed Value, Median (Week 24): 23.5 U/L
- AST Change from Baseline, Mean (Week 24): −5.8 U/L
- AST Change from Baseline, Median (Week 24): −5 U/L
- AST Observed Value, Mean (Week 24): 25.8 U/L
- AST Observed Value, Median (Week 24): 23 U/L
- Albumin Change from Baseline, Mean (Week 24): -0.4 g/L
- Albumin Change from Baseline, Median (Week 24): 0 g/L
- Albumin Observed Value, Mean (Week 24): 41.9 g/L
- Albumin Observed Value, Median (Week 24): 42 g/L
- Alkaline Phosphatase Change from Baseline, Mean (Week 24): −29.2 U/L
- Alkaline Phosphatase Observed Value, Mean (Week 24): 106.2 U/L
- Alkaline Phosphatase Observed Value, Median (Week 24): 88 U/L
- Bilirubin Change from Baseline, Mean (Week 24): -3.68 µmol/L
- Bilirubin Change from Baseline, Median (Week 24): -2.35 µmol/L
- Bilirubin Observed Value, Mean (Week 24): 8.64 µmol/L
- Bilirubin Observed Value, Median (Week 24): 6.8 µmol/L
- Gamma Glutamyl Transferase Change from Baseline, Mean (Week 24): −13.6 U/L
- Gamma Glutamyl Transferase Change from Baseline, Median (Week 24): −6 U/L
- Gamma Glutamyl Transferase Observed Value, Mean (Week 24): 60.4 U/L
- Gamma Glutamyl Transferase Observed Value, Median (Week 24): 40.5 U/L
